Measured values published in US20250019361A1, “(3-QUINOLYL)-QUINAZOLINE” (BASF SE, priority 2021, published 2025).

Test system: Septoria tritici
Experiment: Microtest: activity against leaf blotch on wheat caused by Septoria tritici
Format: cell-based
Conditions: 8 ppm
Description: The active compounds were formulated separately as a stock solution having a concentration of 10000 ppm in dimethyl sulfoxide.
The stock solutions were mixed according to the ratio, pipetted onto a micro titer plate (MTP) and diluted with water to the stated concentrations.
A spore suspension of Septoria tritici in an aqueous biomalt or yeast-bactopeptone-glycerine or DOB solution was then added.
The measured parameters were compared to the growth of the active compound-free control variant (100%) and the fungus-free blank value to determine the relative growth in % of the pathogens in the respective active compounds.

Row | Compound | growth of the pathogen (relative growth in %, control 100%) [%]
1 | CCN1c2c(F)cccc2C(c2cnc3c(F)cccc3c2)=NC1(C)C [Ex-10] | 19
2 | CC1(C)N=C(c2cnc3c(F)cccc3c2)c2ccccc2N1C#N [Ex-8] | 19
3 | N#CN1c2ccccc2C(c2cnc3c(F)cccc3c2)=NC12CCCC2 [Ex-7] | 19
4 | CCCCN1c2c(F)cccc2C(c2cnc3c(F)cccc3c2)=NC1(C)C [Ex-9] | 19
5 | CCCN1c2c(F)cccc2C(c2cnc3c(F)cccc3c2)=NC1(C)C [Ex-11] | 19
